Results on 14 compounds are retold here after US20240199562A1, “UREA DERIVATIVES FOR TREATING UVEAL MELANOMA” (CENTRE NATIONAL DE LA RECHERCHE SCIENTIFIQUE, priority 2021, published 2024).

As a reminder, the IC50 is the midpoint of a concentration-inhibition curve.

Like-named read-outs stand apart in the source and are kept apart here.

Common to all, as to format: cell-based
One assay concerns MM66 cells. The assay can be described thus: Cell viability (XTT) on uveal melanoma cells MM66. Particulars: for metabolism of UM cells (XTT): MM66 cells, increasing doses, FIG. 2A. Here is the method:
(§1) FIG. 1: In vitro efficacy of MCK140 and MCK151 on uveal melanoma cells. Cells were treated for 48 hours with increasing doses of MCK140 or MCK151 and the cell viability was then evaluated by XTT.
(§2) FIG. 2A: In vitro efficacy of MCK151, Ladarixin, and AZD-5069 in uveal melanoma cells. MP41 and MM66 cells were treated for 48 hours with increasing doses of MCK151 or Ladarixin or AZD-5069 and the cell metabolism was then evaluated by XTT.
(§3) Cell culture: Uveal melanoma cells were derived from the primary tumor (eye tumor, MP38 and MP46) and one is from liver metastasis (MM66) were a kind gift from Dr. Roman Roman (Curie Institute). UM cells were cultured in RPMI medium supplemented with 20% FBS.
(§4) Cell viability (XTT): Cells (5×10^3 cells/100 μl) were incubated in a 96-well plate with different effectors for the times indicated in the figure legends. 50 μl of sodium 3′-[1-phenylaminocarbonyl)-3,4-tetrazolium]-bis(4-methoxy-6-nitro) benzene sulfonic acid hydrate (XTT) reagent was added to each well. The assay is based on the cleavage of the yellow tetrazolium salt XTT to form an orange formazan dye by metabolically active cells. Absorbance of the formazan product, reflecting cell viability, was measured at 490 nm. Each assay was performed in quadruplicate.
(Tetrazolium assays rely on reduction of a dye to a coloured formazan, in cell work by metabolically active cells.)

In assay [1] the test system is MP41 cells. The assay can be described thus: Cell viability (XTT) on uveal melanoma cells MP41. Particulars: for metabolism of UM cells (XTT): MP41 cells, increasing doses, FIG. 2A; for IC50: MP41 cells (primary tumor). The protocol:
as §1, §2, §3, §4

Assay [2] relates to MP41 cells. The assay can be described thus: ROS assay (CellROX Deep Red, cytometry). Particulars: MCK151 1, 2.5, 5 μM, Ladarixin 10 μM, FIG. 2B. Here is the method: FIG. 2B: Inhibition of ROS production by MCK151 and Ladarixin in uveal melanoma cells. MP41 cells were treated for 48 hours with increasing doses of MCK151 (1 μM, 2.5 μM, and 5 μM) or Ladarixin (10 μM) and ROS quantity was evaluated by cytometry.
ROS assay: Deep Red Reagent was used to assess the level of intracellular ROS. The CellROX/Deep Red reagent (which is initially non-fluorescent) freely enters the cells, where it is cleaved by endogenous esterases. After oxidization by ROS, the reagent becomes highly fluorescent with an absorption/emission maximal of 644/665 nm. Cells were treated 24h and incubated at 37° C. with CellROX Deep Red reagent (0.01 umol/L) for 2 h. The cells were then washed with PBS and analyzed by cytometry.

In the next assay the test system is MP38 cells. Briefly: Cell viability (XTT) on uveal melanoma cells MP38. Here is the method: as §1, §3, §4
The mark [3] stands for this setting: MM66 cells (liver metastases), 48 h, Table 3, read-out: IC50 (μM) at 48 h MM66.
Where [4] appears, read: 48 h, Table 3, read-out: IC50 (μM) at 48 h MP41.

For `C[C@@H](Oc1cc(NS(=O)(=O)N2CCC2)nc(SCc2cccc(F)c2F)n1)[C@@H](O)CO` [AZD-5069, reference compound], the “metabolism of UM cells (XTT)” value with MM66 cells (48 hours) and with MP41 cells [1] (48 hours) was “no effect” throughout.
With `C[C@@H](C(=O)NS(C)(=O)=O)c1ccc(OS(=O)(=O)C(F)(F)F)cc1` [Ladarixin, reference compound], the “metabolism of UM cells (XTT)” value in the assay with MM66 cells (48 hours) and with MP41 cells [1] (48 hours) was “no effect” in each case. Further, the “ROS production by UM cells” value with MP41 cells [2] is on record as “no effect”.
In the case of `O=C(Nc1ccccc1)Nc1nc2ccccc2[nH]1` [MCK113, 1-(1H-benzo[d]imidazol-2-yl)-3-phenylurea], the IC50 came out at 40 µM in the assay on MM66 cells (setting [3]) and 32 µM in the assay on MP41 cells [1] (setting [4]).
The corresponding values for `CCOc1ccc2nc(NC(=O)Nc3ccccc3C)sc2c1` [MCK133, 1-(6-ethoxybenzo[d]thiazol-2-yl)-3-(o-tolyl)urea] are 20 µM and 15 µM.
For `CCOc1ccc2nc(NC(=O)Nc3ccc(OC)cc3)sc2c1` [MCK135, 1-(6-ethoxybenzo[d]thiazol-2-yl)-3-(4-methoxyphenyl)urea] the same measures were 50 µM and 50 µM.
For `O=C(Nc1nc2ccc([N+](=O)[O-])cc2s1)Nc1ccccc1Cl` [MCK139, 1-(2-chlorophenyl)-3-(6-nitrobenzo[d]thiazol-2-yl)urea] the same measures were 15 µM and 20 µM.
As to `O=C(Nc1cccc(Cl)c1)Nc1nc2ccc([N+](=O)[O-])cc2s1` [MCK140, 1-(3-chlorophenyl)-3-(6-nitrobenzo[d]thiazol-2-yl)urea], the IC50 came out at 1.25 µM in the assay with MM66 cells (setting [3]); 1.25 µM in the assay with MM66 cells (MM66 cells (liver metastasis), 48 hours, XTT, Table 2, read-out: IC50 (μM) UM MM66); 1 µM in the assay with MP41 cells [1] (setting [4]); 1 µM with MP41 cells [1] (48 hours, XTT, Table 2, read-out: IC50 (μM) UM MP41); 1 µM in the assay on MP38 cells (MP38 cells (primary tumor), 48 hours, XTT). Besides, the viability of cells entry in the assay with MM66 cells (MM66 cells from liver metastases, in words) is recorded as “decreased the viability”; in the assay with MP41 cells [1] (MP41 cells from the primary tumor, in words), “decreased the viability”; in the assay with MP38 cells (MP38 cells from the primary tumor, in words) it was “decreased the viability”.
Take `Nc1ccc2nc(NC(=O)Nc3cccc(Cl)c3)sc2c1` [MCK148, 1-(6-aminobenzo[d]thiazol-2-yl)-3-(3-chlorophenyl)urea]: the 50% inhibitory concentration (IC50) with MM66 cells (setting [3]) and in the assay on MP41 cells [1] (setting [4]) was 50 µM in each case.
`CC(=O)Nc1ccc2nc(NC(=O)Nc3cccc(Cl)c3)sc2c1` [MCK149, N-(2-(3-(3-chlorophenyl)ureido)benzo[d]thiazol-6-yl)acetamide]: the figures for the IC50 with MM66 cells (setting [3]) and in the assay with MP41 cells [1] (setting [4]) were 25 µM and 40 µM, respectively.
The corresponding values for `Cc1cccc(NC(=O)Nc2nc3ccc([N+](=O)[O-])cc3o2)c1` [MCK153, 1-(6-nitrobenzo[d]oxazol-2-yl)-3-(m-tolyl)urea] are 12 µM and 30 µM.
The corresponding values for `O=C(Nc1ccccc1)Nc1nc2ccc([N+](=O)[O-])cc2[nH]1` [MCK157, 1-(6-nitro-1H-benzo[d]imidazol-2-yl)-3-phenylurea] are 10 µM and 8 µM.
The corresponding values for `O=C(Nc1cccc(Cl)c1)Nc1nc2ccc(Br)cc2s1` [MCK159, 1-(6-bromobenzo[d]thiazol-2-yl)-3-(3-chlorophenyl)urea] are 10 µM and 20 µM.
As for `O=C(Nc1cccc(Cl)c1)Nc1nc2ccc(-c3cccc4ccccc34)cc2s1` [MCK164, 1-(3-chlorophenyl)-3-(6-(naphthalen-1-yl)benzo[d]thiazol-2-yl)urea], the values for the IC50 with MM66 cells (setting [3]) and in the assay with MP41 cells [1] (setting [4]) were 5 µM and 10 µM, respectively.
The corresponding values for `O=C(Nc1cccc(Cl)c1)Nc1nc2ccc(-c3ccccn3)cc2s1` [MCK172, 1-(3-chlorophenyl)-3-(6-(pyridin-2-yl)benzo[d]thiazol-2-yl)urea] are 25 µM and 30 µM.
